From US20090203877A1, “X-RAY-DENSE CONJUGATE” (Eberhard-Karls-Universitaet Tuebingen Universitaetsklinkum, priority 2006, published 2009)
“Also recorded” adds a separate entry of the source.

Assays:
[1] = tested on: human vascular endothelial cells; conditions: traditional contrast media; cited from earlier work
[2] = tested on: human malignant U373 glioma cells; experiment: Computer tomography, signal density of cell pellets; type: cell-based; conditions: 260 μM, 20 min
Method: (§1) For CT and FACS human U373 glioma cells were grown under the same conditions in 75 cm^2 culture flasks (Corning Costar, Bodenheim, Germany) (70% confluency). Accutase™ (PAA laboratories, Pasching, Austria) was added to achieve detachment of the cells which were harvested and subsequently aliquoted into Eppendorf tubes (6×10^6 cells per tube). As in the investigations performed by fluorescence microscopy, the cells in the first tube served as a control (PBS only). The cells in the other tubes were incubated with 260 μM Ultravist, 260 μM TIBA in PBS and 26 μM, 260 μM and 2.6 mM conjugates 1-4 in PBS. After a 20 minute incubation period at 37° C. in an atmosphere of 5% CO2, the cells were washed three times in PBS and centrifuged at 800 rpm for 5 minutes.
The inner ear spiral CT protocol consisted of: tube voltage 120 KV, effective mAs 550, time of imaging TI: 1.5, SL 0.75/0.75/4.5, FOV: 50 0/52, kernel: U70, window: intervertebral disc.
3D-images were obtained using InSpace Software (Syngo CT 2006G) (Siemens AG, Erlangen, Germany).
(§2) After an incubation of 20 minutes at 37° C./5% CO2 the cells were washed three times with PBS buffer and centrifuged at 800 rpm (rounds per minute) for 5 minutes. The fluorescence was measured in Becton Dickinson FACSCalibur as described under 1.4. The computer tomography was performed as described under 1.5.1. The examinations were repeated two times. […]
An Orbita CT spiral was used: tube voltage 120 KV, effective mAs 550, time of imaging TI: 1.5, SL 0.75/0.75/4.5, FOV: 50 0/52, GT: 0.0, kernel: U70, window: intervertebral disc. 3D images were made with the InSpace Software (Syngo CT 2006G) (Siemens AG, Erlangen, Germany). […]

[3] = tested on: human malignant LN18 glioma cells; experiment: Computer tomography, signal density of cell centrifugates; type: cell-based; conditions: 260 μM, 20 min
Method: After an incubation of 20 minutes at 37° C./5% CO2 the cells were washed three times with PBS buffer and centrifuged at 800 rpm (rounds per minute) for 5 minutes. The fluorescence was measured in Becton Dickinson FACSCalibur as described under 1.4. The computer tomography was performed as described under 1.5.1. The examinations were repeated two times. For the CT and FACS examinations human LN-18 and U373 glioma cells were cultivated in 75 cm^2 culture flasks (Corning Costar) (70% confluency) (conditions as described under 1.4). Accutase™ (PAA Laboratories) was added to detach the cells from the bottom of the culture flasks. The cells were collected and then distributed on Eppendorf tubes (6×10^6 cells per tube). The cells in the first two tubes serve as a control (in each case only PBS, LN18 and U373 glioma cells, native). The cells in the other tubes (in each case LN18 and U373 glioma cells) were incubated with a 260 μM or 2.6 mM solution of the conjugate 12 for 20 minutes at 37° C. and 5% CO2 and in the following washed for three times with PBS buffer and centrifuged for 5 minutes with 800 rpm (rounds per minute). For a small amount of the cells it was tested by the MMT test (see 1.4) how many of the cells were still viable. The computer tomography of the cell centrifuges was performed with the Somatom Sensation 16 (Siemens). An Orbita CT spiral was used: tube voltage 120 KV, effective mAs 550, time of imaging TI: 1.5, SL 0.75/0.75/4.5, FOV: 50 0/52, GT: 0.0, kernel: U70, window: intervertebral disc. 3D images were made with the InSpace Software (Syngo CT 2006G) (Siemens AG, Erlangen, Germany). […] Accutase™ (PAA Laboratories) was added to detach the cell from the culture bottom. The cells were collected and then distributed on Eppendorf-tubes (6×10^6 cells per tube).

[4] = tested on: human malignant U373 glioma cells; experiment: Uptake/staining of cells by FITC-labelled conjugates (fluorescence microscopy, CLSM, FACS, semi-thin sections); type: cell-based; conditions: 260 μM
Method: Fluorescence was measured in a Becton Dickinson FACSCalibur. […] The investigations were performed in triplicate.
as §1
The FACS analysis was performed as described under 1.4.
(§3) The human malignant U373 and LN18 glioma cells were cultivated in 75 cm^2 culture flasks (Corning Costar) (70% confluency) under the conditions as described under 1.4, detached from the flask bottom with Accutase™ (PAA Laboratories) and in the following distributed on Eppendorf tubes (Eppendorf, Hamburg, Germany) (6×10^6 per tube). The cells in the first tube serve as a control (only PBS buffer only). The cells in the other ten tubes were each incubated with benzoic acid (BA), monoiodobenzoic acid (MIBA) or diiodobenzoic acid (DIBA) alone (260 μM), conjugate 3 alone (260 μM), conjugate 3 plus either BA, MIBA or DIBA (260 μM), respectively, and the conjugates 9, 10, and 11 alone. (260 μM).
After an incubation of 20 minutes at 37° C./5% CO2 the cells were washed three times with PBS buffer and centrifuged at 800 rpm (rounds per minute) for 5 minutes. The fluorescence was measured in Becton Dickinson FACSCalibur as described under 1.4. The computer tomography was performed as described under 1.5.1. The examinations were repeated two times.
For the CT and FACS examinations human LN-18 and U373 glioma cells were cultivated in 75 cm^2 culture flasks (Corning Costar) (70% confluency) (conditions as described under 1.4). Accutase™ (PAA Laboratories) was added to detach the cells from the bottom of the culture flasks. The cells were collected and then distributed on Eppendorf tubes (6×10^6 cells per tube). The cells in the first two tubes serve as a control (in each case only PBS, LN18 and U373 glioma cells, native). The cells in the other tubes (in each case LN18 and U373 glioma cells) were incubated with a 260 μM or 2.6 mM solution of the conjugate 12 for 20 minutes at 37° C. and 5% CO2 and in the following washed for three times with PBS buffer and centrifuged for 5 minutes with 800 rpm (rounds per minute). For a small amount of the cells it was tested by the MMT test (see 1.4) how many of the cells were still viable. The computer tomography of the cell centrifuges was performed with the Somatom Sensation 16 (Siemens).
(§4) The FACS analysis was performed as described under 1.4. The assay was repeated two times.
For the CT and FACS examinations human LN18 and U373 glioma cells were cultivated in 75 cm^2 culture flasks (70% confluency) (conditions as described under section 1). Accutase™ (PAA Laboratories) was added to detach the cell from the culture bottom. The cells were collected and then distributed on Eppendorf-tubes (6×10^6 cells per tube). […] The next three tubes were used for the coincubation of the cells either with trichlorobenzoic acid (TCBA), trifluorobenzoic acid (TFBA) or tribromophenyl Isocyanat (TBPI) and the NLS-FITC-conjugate 3 (260 μM). As control cells were used which were only either incubated with CIBA, FIBA, TBPI (in each case 260 μM in PBS) or with PBS-buffer (native control) alone. […] The computer tomography and FACS analysis of the cell centrifuges were performed as described in 1.5.1 or 1.4, respectively for three times. […]

[5] = tested on: human malignant LN18 glioma cells; experiment: Uptake/staining of cells by FITC-labelled conjugates (CLSM, FACS, semi-thin sections); type: cell-based; conditions: 260 μM; for nuclear staining of cells (CLSM), in words: 20 min; for heavily stained cells: FIGS. 8, 13-16; for staining of nucleoli in semi-thin sections (about 0.4 μm): after incubation
Method: as §3, §2, §4
For the CT and FACS examinations human LN18 and U373 glioma cells were cultivated in 75 cm^2 culture flasks (70% confluency) (conditions as described under section 1). Accutase™ (PAA Laboratories) was added to detach the cell from the culture bottom. The cells were collected and then distributed on Eppendorf-tubes (6×10^6 cells per tube). […] The next three tubes were used for the coincubation of the cells either with trichlorobenzoic acid (TCBA), trifluorobenzoic acid (TFBA) or tribromophenyl Isocyanat (TBPI) and the NLS-FITC-conjugate 3 (260 μM). As control cells were used which were only either incubated with CIBA, FIBA, TBPI (in each case 260 μM in PBS) or with PBS-buffer (native control) alone. […] The computer tomography and FACS analysis of the cell centrifuges were performed as described in 1.5.1 or 1.4, respectively for three times.
All measurements were performed on living cells.
All measurements were performed on living cells in triplicates.
A part of the cells which were stained for the FACS analysis, was fixed by paraformaldehyl with 2% Agar, dehydrogenized in ethanol, embedded in Lowicryl K4M (Polysciences, Eppelheim, Germany) and according to the information of the manufacturer UV-polymerised at room temperature. Semi-thin sections (about 0.4 μm) were cut and evaluated by means of fluorescence microscopy.

[6] = tested on: human malignant LN18 glioma cells; experiment: Cell viability / cell death (annexin-V-Alexa 568 binding, propidium iodide, FACS scatter morphology); type: cell-based; conditions: 260 μM, 20 min, substance alone
Method: All measurements were performed on living, non-fixed cells. […] All measurements were performed on living cells. […] All measurements were performed on living cells in triplicates. […] All measurements were performed on living cells.

For `COCC(=O)Nc1c(I)c(C(=O)NCC(O)CO)c(I)c(C(=O)N(C)CC(O)CO)c1I` (stereo not shown) [Ultravist, Iopromid, reference compound], the “concentration at which apoptosis is induced” value [1] is given as 250 mg iodine per millilitre and the “CT signal density of cell pellets” value [2] is given as “only low signal density values; also recorded: did not result in any increase in signal density”.

In the case of `CNC(=O)c1c(I)c(C(=O)NCC(=O)Nc2c(I)c(C(=O)O)c(I)c(C(=O)NCCO)c2I)c(I)c(N(C)C(C)=O)c1I` [ioxaglate], the “concentration at which apoptosis is induced” value [1] is given as 250 mg iodine per millilitre.

For “PKKKRKVK(FITC)GGK(TBPI) (PKKKRKVKGGK; FITC, GGK linker, TBPI) [conjugate 15, FITC-labelled tribromophenyl isocyanate-NLS-conjugate]”, the “CT signal density of cell centrifugates” value [3] was “did not result in an increase of the signal density”, the “cells strongly stained by FITC, FACS histogram” value (“cells strongly stained by FITC” for short) [4] was “clear increase of the cells which are strongly stained by FITC” and the “cells strongly stained by FITC” value [5] was “clear increase of the cells which are strongly stained by FITC”. For the same molecule, the “nuclear staining of cells (CLSM), in words” value (“nuclear staining of cells” below) ([5]; listed as K15) was “strong staining of the nucleus in almost all cells; also recorded: nuclei of the LN18 glioma cells accumulate”, the heavily stained cells [5] was 78% and the “staining of nucleoli in semi-thin sections (about 0.4 μm)” value (shortened to “staining of nucleoli”) [5] was “strongly stained; also recorded: accumulate in the nucleoli”. For the same molecule, the “CT signal density of cell pellets” value [2] was “did not result in an increase of the signal density”, the “cell death / vitality (annexin-V-Alexa 568, propidium iodide)” value (“cell death / vitality” below) [6] was “signs of cell death” and the “cell death / vitality” value ([6]; listed as K15) was “Alexa-annexin binds to the surface of the cells”.

With “PKKKRKVK(FITC)GGK(TCBA) (PKKKRKVKGGK; FITC, GGK linker, TCBA) [conjugate 14, FITC-labelled NLS with trichlorobenzoic acid]” the “CT signal density of cell centrifugates” value [3] was “did not result in an increase of the signal density”, the “cells strongly stained by FITC” value [4] was “shift of the histogram peak to the right” and the “cells strongly stained by FITC” value [5] was “shift of the histogram peak to the right”. The “nuclear staining of cells” value [5] was “almost all nuclei are stained”, the heavily stained cells [5] was 78% and the “staining of nucleoli” value [5] was “accumulate in the nucleoli”. For the same molecule, the “CT signal density of cell pellets” value [2] was “did not result in an increase of the signal density” and the “cell death / vitality” value [6] was “dead and signs of cell death”.

With “PKKKRKVK(FITC)GGK(TFBA) (PKKKRKVKGGK; FITC, GGK linker, TFBA) [conjugate 13, FITC-labelled NLS with trifluorobenzoic acid]” the “CT signal density of cell centrifugates” value [3] was “did not result in an increase of the signal density”, the “cells strongly stained by FITC” value [4] was “shift of the histogram peak to the right” and the “cells strongly stained by FITC” value [5] was “shift of the histogram peak to the right”. The “nuclear staining of cells” value [5] was “stains a large number of cells in the nucleus”, the heavily stained cells [5] was 78% and the “staining of nucleoli” value [5] was “accumulate in the nucleoli”. For the same molecule, the “CT signal density of cell pellets” value [2] was “did not result in an increase of the signal density” and the “cell death / vitality” value [6] was “no longer vital; also recorded: signs of cell death”.
